The values that follow come from patent US6211168A, “Methods for preparation and use of 1α,24 (S)-dihydroxy vitamin D2” (Bone Care International, Inc, priority 1995, dated 2001).

Molecules are shown by their SMILES.

The subject of data set [1] is postmenopausal osteoporotic women. The data set can be described thus: dose ranging study in postmenopausal osteoporotic women. Format: in vivo, human. The conditions noted are these: oral 0.5 to 8.0 μg/day escalating over five weeks. The protocol:
Twenty postmenopausal osteoporotic women are enrolled in an open label study.
On admission to the study, all patients receive instruction on selecting a daily diet containing 400 to 600 mg of calcium. Compliance to this diet is verified at weekly intervals by 24-hour food records and by interviews with each patient.
All patients complete a one-week baseline period, a five-week treatment period, and a one-week post-treatment observation period. During the treatment period, patients orally self-administer 1α,24(S)-dihydroxyvitamin D2 at an initial dose of 0.5 μg/day for the first week, and at successively higher doses of 1.0, 2.0, 4.0, and 8.0 μg/day in each of the following four weeks. All doses are administered before breakfast.
Blood and urine chemistries are monitored on a weekly basis throughout the study. Key blood chemistries include fasting serum levels of calcium, phosphorus, osteocalcin, creatinine, and blood urea nitrogen. Key urine chemistries include 24-hour excretion of calcium, phosphorus, and creatinine.

The next data set concerns HL-60 promyelocytes. Put plainly: HL-60 cell differentiation assay. The data set is classed as cell-based. The note with it: dose-response; acid esterase, NBT reduction, thymidine incorporation. How it is done: A dose-response study is conducted with 1α,24(S)-(OH)2 D2 in the HL-60 cell differentiation assay as described by DeLuca and Ostrom (DeLuca, H. F. and Ostrem, V. K., Prog. Clin. Biol. Res., vol. 259, pp. 41-55 (1988)). In this study, 1α,25-(OH)2 D3 is used as a positive control and appropriate solvents are used as negative controls. The following variables are evaluated: nonspecific acid esterase activity, nitroblue tetrazolium (NBT) reduction, and thymidine incorporation.
For orientation: Uptake of a labelled nucleoside into DNA is a usual measure of proliferation.

Data set [2] has as its system human cancer cell lines BCA-1 or ZR-75-1 (breast) and COL-1 (colon). Put plainly: antiproliferative activity in human cancer cell lines (thymidine incorporation). The conditions noted are these: dose-response. The data set is classed as cell-based. How it is done:
Dose-response studies are conducted with 1α,24(S)-(OH)2 D2 in a battery of human cancer cell lines. These cell lines include, but are not limited to, the following: BCA-1 or ZR-75-1 (breast) and COL-1 (colon), as described by Shieh, H. L. et al. Chem. Biol. Interact., vol. 81, pp. 35-55 (1982). In this study, appropriate solvents are used as negative controls.

The test system of data set [3] is men and women with renal disease undergoing chronic hemodialysis. Put plainly: hypocalcemia and metabolic bone disease in chronic hemodialysis patients. Format: in vivo, human. The conditions noted are these: greater than 3.0 μg/day, twelve months. How it is done:
A twelve-month, double-blind, placebo-controlled clinical trial is conducted with thirty men and women with renal disease who are undergoing chronic hemodialysis. […] Efficacy is evaluated by pre- and post-treatment comparisons of the two patient groups with regard to (a) direct measurements of intestinal calcium absorption, (b) total body calcium retention, (c) radial and spinal bone mineral density, or (d) determinations of serum calcium. Safety is evaluated by regular monitoring of serum calcium.

As to `C=C1/C(=C\C=C2/CCC[C@]3(C)[C@@H]([C@H](C)/C=C/[C@@](C)(O)C(C)C)CC[C@@H]23)C[C@@H](O)C[C@@H]1O` [1α,24(S)-(OH)2 D2, 1α,24(S)-dihydroxy vitamin D2], in data set [1], the “24-hour urinary calcium levels” value was “modest increases in 24-hour urinary calcium levels”, the “routinely monitored serum parameters” value is on record as “no effect on any routinely monitored serum parameters”, the serum osteocalcin levels entry was “increases in serum osteocalcin levels” and the “urinary excretion of hydroxyproline” value is “nor does it increase urinary excretion of hydroxyproline”. Also, the “differentiation of HL-60 promyelocytes to monocytes” value in the data set with HL-60 promyelocytes is on record as “potent activity in promoting differentiation of HL-60 promyelocytes to monocytes”. In data set [2], the “antiproliferative activity, inhibition of thymidine incorporation” value is “potent (and reversible) antiproliferative activity”. Further, in data set [3], the “radial and spinal bone densities relative to baseline” value was “stable radial and spinal bone densities”; the “total body calcium relative to baseline” value is “stable values for total body calcium”. In data set [3] (double-isotope technique), the intestinal calcium absorption result is listed as “significantly increases intestinal calcium absorption”.
